In the experiment the test system is T. b. rhodesiense STIB900 bloodstream, Alamar blue, 72 h. Put plainly: T. b. rhodesiense proliferation inhibition, dose response, STIB900 strain, plate reader, dry powder (AID 651894).

For orientation: IC50 means the midpoint of a concentration-inhibition curve. As for `C[C@@H]1CN([C@@H](C)CO)C(=O)c2cccc(NC(=O)c3ccncc3)c2O[C@H]1CN(C)Cc1ccc(Oc2ccccc2)cc1`, the IC50 is 170 nM.

(Values after PubChem BioAssay AID651894 (Broad Institute, 2012).)
